Patent US20260191858A1, “COMBINATION THERAPIES” (Kallyope, Inc., priority 2022, published 2026)

Biological target: T1, human GPR119 (hGPR119) (Homo sapiens, UniProt Q8TDV5)
T1 construct: expressed in transfected cells; host or cells: CHO-K1
T1 sequence (Q8TDV5 1-335): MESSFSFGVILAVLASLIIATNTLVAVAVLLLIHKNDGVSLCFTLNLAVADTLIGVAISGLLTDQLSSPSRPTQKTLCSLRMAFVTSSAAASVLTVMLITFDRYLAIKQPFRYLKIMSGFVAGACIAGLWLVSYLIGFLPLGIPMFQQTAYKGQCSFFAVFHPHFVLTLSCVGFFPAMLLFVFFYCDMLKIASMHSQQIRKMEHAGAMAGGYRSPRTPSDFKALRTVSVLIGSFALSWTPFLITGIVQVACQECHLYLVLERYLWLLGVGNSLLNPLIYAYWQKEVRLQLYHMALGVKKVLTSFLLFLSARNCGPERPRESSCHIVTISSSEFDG
Assay: cAMP accumulation assay in CHO-K1 cells stably expressing hGPR119
Format: cell-based
Details: cAMP HTRF, 60 minutes
Description: CHO-K1 cells stably expressing human GPR119 (hGPR119) were prepared by transfection of a GPR119-carrying plasmid using Lipofectamine 2000 (following manufacturer instructions). A stable cell line was established using the limiting dilution method with geneticine selection. Assay-ready frozen (ARF) cells were prepared and used throughout the study.
The assay was performed in a 384-well plate format using the CAMP Gs dynamic assay kit from Cisbio. ARF cells expressing hGPR119 were thawed, washed and then resuspended in CAMP stimulation buffer at a cell density of 1.1×10^6 cells/mL. Cells were plated at a density of ~10,000 cells/well (9 μL/well). Dose response curves for the tested compounds were prepared in a cAMP stimulation buffer, containing 0.1% Tween 80 at 4 fold the final concentration. The compounds were then transferred to the cell plates using BRAVO (3 μL/well) and the plates were incubated for 60 minutes at 37° C./5% CO2. Detection buffer (10 μL, prepared as described in the CAMP Gs dynamic kit) were added to each well, and the plates were incubated at ambient temperature for 1 hr.
RT-FRET was measured using a ClarioSTAR plate reader, calculating the ratio between emissions at 665 nm and 620 nm (HTRF ratio). The HTRF ratio for positive (Max) and negative (Min) controls were used to normalize HTRF data and generate values for % activity. EC50 and Max activity values were determined using a standard 4-parameter fit.

SMILES | EC50 [nM]
O=C(Cc1ccc(OCCCC2CCN(c3ncc(Cl)cn3)CC2)cc1F)N1CC(CN2C[C@@H](O)[C@@H](O)[C@@H](O)C2)C1 [Compound A22, 2-[4-[3-[1-(5-chloropyrimidin-2-yl)-4-piperidyl]propoxy]-2-fluoro-phenyl]-1-[3-[[rac-(3R,5S)-3,4,5-trihydroxy-1-piperidyl]methyl]azetidin-1-yl]ethanone] | ≤ 100
COCc1cnc(N2CCC(CCCOc3ccc(CC(=O)N4CC(CNCC[C@@H](O)C[C@@H](O)CC(=O)O)C4)c(F)c3)CC2)nc1 [Compound A52, (3R,5R)-7-[[1-[2-[2-fluoro-4-[3-[1-[5-(methoxymethyl)pyrimidin-2-yl]-4-piperidyl]propoxy]phenyl]acetyl]azetidin-3-yl]methylamino]-3,5-dihydroxy-heptanoic acid] | 100 to 1000
CCc1cnc(N2CCC(CCCOc3ccc(CC(=O)N4CC(CNC(CO)(CO)CO)C4)c(F)c3)CC2)nc1 [Compound A34, 1-(3-(((1,3-dihydroxy-2-(hydroxymethyl)propan-2-yl)amino)methyl)azetidin-1-yl)-2-(4-(3-(1-(5-ethylpyrimidin-2-yl)piperidin-4-yl)propoxy)-2-fluorophenyl)ethan-1-one] | ≤ 100
NCCOCCOCCNCC1CN(C(=O)Cc2ccc(OCCCC3CCN(c4ncc(Cl)cn4)CC3)cc2F)C1 [Compound A24, 1-[3-[[2-[2-(2-aminoethoxy)ethoxy]ethylamino]methyl]azetidin-1-yl]-2-[4-[3-[1-(5-chloropyrimidin-2-yl)-4-piperidyl]propoxy]-2-fluoro-phenyl]ethanone] | 100 to 1000
O=C(Cc1ccc(OCCCC2CCN(c3ncc(Cl)cn3)CC2)cc1F)N1CC(CN2C[C@H](O)[C@@H](O)C2)C1 (stereo in doubt) [Compound A18, 2-[4-[3-[1-(5-chloropyrimidin-2-yl)-4-piperidyl]propoxy]-2-fluoro-phenyl]-1-[3-[[rac-(3S,4S)-3,4-dihydroxypyrrolidin-1-yl]methyl]azetidin-1-yl]ethanone] | ≤ 100

Continued, values first:

EC50 [nM] | SMILES
≤ 100 | CCOc1cnc(N2CCC(CCCOc3cc(F)c(CC(=O)N4CC(CNC[C@H](O)[C@@H](O)[C@H](O)[C@H](O)CO)C4)c(F)c3)CC2)nc1 [Compound A58, 2-[4-[3-[1-(5-ethoxypyrimidin-2-yl)-4-piperidyl]propoxy]-2,6-difluoro-phenyl]-1-[3-[[[(2S,3R,4R,5R)-2,3,4,5,6-pentahydroxyhexyl]amino]methyl]azetidin-1-yl]ethanone]
100 to 1000 | O=C(Cc1ccc(OCCCC2CCN(c3ncc(Cl)cn3)CC2)cc1F)N1CC(CNC[C@H](O)[C@@H](O)[C@H](O)[C@H](O)CO)C1 [Compound A14, 2-[4-[3-[1-(5-chloropyrimidin-2-yl)-4-piperidyl]propoxy]-2-fluoro-phenyl]-1-[3-[[[(2S,3R,4R,5R)-2,3,4,5,6-pentahydroxyhexyl]amino]methyl]azetidin-1-yl]ethanone]
100 to 1000 | COCc1cnc(N2CCC(CCCOc3cc(F)c(CC(=O)N4CC(CNC[C@H](O)[C@@H](O)[C@H](O)[C@H](O)CO)C4)c(F)c3)CC2)nc1 [Compound A56]
100 to 1000 | O=C(CC1CN(C(=O)Cc2ccc(OCCCC3CCN(c4ncc(Cl)cn4)CC3)cc2F)C1)NC[C@H](O)[C@@H](O)[C@H](O)[C@H](O)CO (racemic) [Compound A11, 2-[1-[2-[4-[3-[1-(5-chloropyrimidin-2-yl)-4-piperidyl]propoxy]-2-fluoro-phenyl]acetyl]azetidin-3-yl]-N-[rac-(2S,3R,4R,5R)-2,3,4,5,6-pentahydroxyhexyl]acetamide]
100 to 1000 | CCCc1cnc(N2CCC(CCCOc3ccc(CC(=O)N4CC(CNC[C@H](O)[C@@H](O)[C@H](O)[C@H](O)CO)C4)c(F)c3)CC2)nc1 [Compound A44, 2-(2-fluoro-4-(3-(1-(5-propylpyrimidin-2-yl)piperidin-4-yl)propoxy)phenyl)-1-(3-((((2S,3R,4R,5R)-2,3,4,5,6-pentahydroxyhexyl)amino)methyl)azetidin-1-yl)ethan-1-one]
